From US9808008B2, “Synergistic pesticidal compositions and related methods” (Dow AgroSciences LLC, priority 2013, dated 2017)

How the values were obtained:
Type in all cases: in vivo
[1] = test system: Western plant bug (Lygus bug), Lygus hesperus (Knight); assay: Treated bean piece bioassay against Western plant bug (Lygus bug), synergy by Colby's equation; conditions: Lygus bugs
Text: The method described in Colby S. R., “Calculating Synergistic and Antagonistic Responses of Herbicide Combinations,” Weeds, 1967, 15, 20-22 was used to determine an existence of synergic effect between the nAChR allosteric activator compound and the pesticide (I), (II), or any agriculturally acceptable salt thereof in the formulated pesticidal composition. In this method, the percent insect control of the formulated pesticidal composition as observed in the study was compared to the “expected” percent control (E) as calculated by equation (1) (hereinafter “Colby's equation”) below: [formula] where X is the percentage of control with the first pesticide at a given rate (p), Y is the percentage of control with the second pesticide at a given rate (q), and E is the expected control by the first and second pesticide at a rate of p+q. […] A pesticidal composition was prepared by thoroughly mixing about 0.04 weight % of compound I with about 0.00125 weight % of spinetoram. The active compounds were formulated in a 10% acetone solution with 0.025% non-ionic surfactant, TWEEN® 20. Bioassays were performed for each different active solution. Bean pieces (about one inch-long) were used for the tests. Four bean pieces were placed in each tested active solution and left there for 10 minutes. Bean pieces were taken out of the active solution, and each piece was placed in a well in a 32-well tray and allowed to air dry. Three third-instar nymphs of Western plant bug (Lygus bug), Lygus hesperus (Knight), were infested into each well. The percent control of the pesticidal composition against Lygus bug was determined as the “Observed” action, and compared to those obtained by using about 0.04 weight % of compound I, and using about 0.00125 weight % of spinetoram alone. The “Colby's Expected Action” was calculated using Colby's equation as discussed previously. A pesticidal composition was prepared by thoroughly mixing about 0.04 weight % of compound I with about 0.005 weight % of spinetoram. The bioassays were performed wherein different active compounds were tested against Western plant bug (Lygus bug), Lygus hesperus (Knight), using the procedure described in example 4A.

[2] = test system: South American brown stink bug, Euschistus heros; assay: Treated bean piece bioassay against South American brown stink bug, synergy by Colby's equation; conditions: Spinetoram alone, dose rate 0.0000039 weight %
Text: The method described in Colby S. R., “Calculating Synergistic and Antagonistic Responses of Herbicide Combinations,” Weeds, 1967, 15, 20-22 was used to determine an existence of synergic effect between the nAChR allosteric activator compound and the pesticide (I), (II), or any agriculturally acceptable salt thereof in the formulated pesticidal composition. In this method, the percent insect control of the formulated pesticidal composition as observed in the study was compared to the “expected” percent control (E) as calculated by equation (1) (hereinafter “Colby's equation”) below: [formula] where X is the percentage of control with the first pesticide at a given rate (p), Y is the percentage of control with the second pesticide at a given rate (q), and E is the expected control by the first and second pesticide at a rate of p+q. […] The percent control of the pesticidal composition against South American brown stink bug, Euschistus heros, was determined as the “Observed” action, and compared to those obtained by using about 0.04 weight % of compound I, and using about 0.0000039 weight % of spinetoram alone. The “Colby's Expected Action” was calculated using Colby's equation as discussed previously.

[3] = test system: cotton aphid, Aphis gossypii (Glover); assay: Track-sprayed cotton plant bioassay against cotton aphid, synergy by Colby's equation; conditions: Spinetoram alone, dose rate 0.005 weight %
Text: The method described in Colby S. R., “Calculating Synergistic and Antagonistic Responses of Herbicide Combinations,” Weeds, 1967, 15, 20-22 was used to determine an existence of synergic effect between the nAChR allosteric activator compound and the pesticide (I), (II), or any agriculturally acceptable salt thereof in the formulated pesticidal composition. In this method, the percent insect control of the formulated pesticidal composition as observed in the study was compared to the “expected” percent control (E) as calculated by equation (1) (hereinafter “Colby's equation”) below: [formula] where X is the percentage of control with the first pesticide at a given rate (p), Y is the percentage of control with the second pesticide at a given rate (q), and E is the expected control by the first and second pesticide at a rate of p+q. […] The percent control of the pesticidal composition against cotton aphid, Aphis gossypii (Glover), was determined as the “Observed” action, and compared to those obtained by using about 0.0020 weight % of compound II, and using about 0.005 weight % of spinetoram alone. The “Colby's Expected Action” was calculated using Colby's equation as discussed previously.

[4] = test system: diamondback moth, Plutella xylostella; assay: Track-sprayed cabbage plant bioassay against diamondback moth, synergy by Colby's equation; conditions: Spinetoram alone, dose rate 0.0003125 weight %
Text: The method described in Colby S. R., “Calculating Synergistic and Antagonistic Responses of Herbicide Combinations,” Weeds, 1967, 15, 20-22 was used to determine an existence of synergic effect between the nAChR allosteric activator compound and the pesticide (I), (II), or any agriculturally acceptable salt thereof in the formulated pesticidal composition. In this method, the percent insect control of the formulated pesticidal composition as observed in the study was compared to the “expected” percent control (E) as calculated by equation (1) (hereinafter “Colby's equation”) below: [formula] where X is the percentage of control with the first pesticide at a given rate (p), Y is the percentage of control with the second pesticide at a given rate (q), and E is the expected control by the first and second pesticide at a rate of p+q. […] Bioassays were performed for different active compounds. Cabbage plants with about two to three new-growth-true leaf stage were treated with different active compounds using a track sprayer at a volume of 400 L/Ha. Three second instar diamondback moth, Plutella xylostella, were infested onto each leaf disc. […] The “Colby's Expected Action” was calculated using Colby's equation as discussed previously.

Molecule	% Control Three Days After Treatment ([1]; Example 8A, Compound I alone, dose rate 0.04 weight %)	% Control Three Days After Treatment ([1]; Example 8B, Compound I alone, dose rate 0.04 weight %) [%]	% Control Three Days After Treatment ([1]; Example 8B, Compound I alone, dose rate 0.04 weight %, listed as compound I)	% Control Three Days After Treatment ([1]; Example 8A, Spinetoram alone, dose rate 0.00125 weight %) [%]	% Control Three Days After Treatment ([1]; Example 8A, Spinetoram alone, dose rate 0.00125 weight %, listed as spinetoram)	% Control Three Days After Treatment ([1]; Example 8B, Spinetoram alone, dose rate 0.005 weight %) [%]	% Control Three Days After Treatment ([1]; Example 8B, Spinetoram alone, dose rate 0.005 weight %, listed as spinetoram)	% Control Four Days After Treatment [2] [%]	% Control Three Days After Treatment [3] [%]	% Control Three Days After Treatment [4] [%]
CCN(C(=O)CCSCCC(F)(F)F)c1cn(-c2cccnc2)nc1Cl [Compound I, N-(3-chloro-1-(pyridin-3-yl)-1H-pyrazol-4-yl)-N-ethyl-3-((3,3,3-trifluoropropyl)thio)propanamide]	no control	0	no control							
Spinetoram				0	no control	0	no control	25	2	54.17
